Source: patent US4820695A, “C-20-dihydro-deoxy-(cyclic amino)-derivatives of macrolide antibiotics” (priority 1987, dated 1989)
Values after ≈ are worked out from the molar mass of the structure shown. Where two headings read alike, the source gives them in different places.

Assays:
[1] = test system: Escherichia coli EC14; assay: MIC, standard agar-dilution assay (Table IX); assay type: cell-based; details: read-out: MIC
[2] = test system: Staphylococcus aureus V41; assay: MIC, standard agar-dilution assay (Table IX); assay type: cell-based; details: Staphylococcus aureus V41, Penicillin-resistant strain, read-out: MIC
[3] = test system: Escherichia coli TEM; assay: MIC, standard agar-dilution assay (Table IX); assay type: cell-based; details: read-out: MIC
[4] = test system: Haemophilus influenzae 76; assay: MIC, standard agar-dilution assay (Table IX); assay type: cell-based; details: Haemophilus influenzae 76, Ampicillin-resistant strain, read-out: MIC
[5] = test system: Staphyloccus aureus X1.1; assay: MIC, standard agar-dilution assay (Table IX); assay type: cell-based, Staphylococcus aureus; details: Staphylococcus aureus, read-out: MIC
[6] = test system: Staphylococcus epidermidis 222; assay: MIC, standard agar-dilution assay (Table IX); assay type: cell-based; details: read-out: MIC
[7] = test system: Escherichia coli N10; assay: MIC, standard agar-dilution assay (Table IX); assay type: cell-based; details: read-out: MIC
[8] = Titratable groups in 66% aqueous DMF (Tables XIV-XVI); assay type: physicochemical
Source text: ^c Run in 66% aqueous DMF
^d Run in 66% aqueous DMF

[9] = test system: Streptococcus Group D 2041; assay: MIC, standard agar-dilution assay (Table IX); assay type: cell-based; details: GROUPD2041, read-out: MIC
[10] = test system: Staphylococcus epidermidis EPI1; assay: MIC, standard agar-dilution assay (Table IX); assay type: cell-based
[11] = test system: Streptococcus pyogenes C203; assay: ED50 in mice experimentally infected with S. pyogenes C203 (Table XI); assay type: in vivo; details: Streptococcus pyogenes, doses given 1 and 4 hours postinfection, read-out: ED50
Experimental: The C-20 modified derivatives of this invention have shown in vivo antimicrobial activity against experimentally-induced infections in laboratory animals. When two doses of test compound were administered to mice experimentally infected with S. pyogenes C203, the activity observed was measured as an ED50 value [effective dose in mg/kg to protect 50% of the test animals: see Warren Wick, et al., J. Bacteriol. 81, 233-235 (1961)].
^a mg/kg × 2; doses given 1 and 4 hours postinfection

[12] = test system: Staphylococcus aureus; assay: MIC, broth-dilution microtiter test (Table X); assay type: cell-based; details: read-out: MIC
Source text: (§1) The MIC's in Table X were obtained using conventional broth-dilution microtiter tests.

[13] = test system: Pasteurella hemolytica 22C; assay: MIC, broth-dilution microtiter test (Table X); assay type: cell-based; details: read-out: MIC
Source text: as §1

[14] = test system: Streptococcus sp. 19F; assay: MIC, broth-dilution microtiter test (Table X); assay type: cell-based; details: read-out: MIC
Source text: as §1

[15] = test system: Mycoplasma gallisepticum 29C; assay: MIC, broth-dilution microtiter test (Table X); assay type: cell-based; details: Mycoplasmoides gallisepticum, read-out: MIC
Source text: as §1

[16] = test system: Pasteurella multocida 17E; assay: MIC, broth-dilution microtiter test (Table X); assay type: cell-based; details: Bovine isolate, read-out: MIC
Source text: as §1

[17] = test system: Pasteurella multocida 60A; assay: MIC, broth-dilution microtiter test (Table X); assay type: cell-based; details: Avian isolate, read-out: MIC
Source text: as §1

[18] = test system: Mycoplasma hyopneumoniae S5972; assay: MIC, broth-dilution microtiter test (Table X); assay type: cell-based; details: Mesomycoplasma hyopneumoniae, read-out: MIC
Source text: as §1

[19] = test system: Mycoplasma synoviae 40A; assay: MIC, broth-dilution microtiter test (Table X); assay type: cell-based; details: Mycoplasmopsis synoviae, read-out: MIC
Source text: as §1

[20] = test system: Mycoplasma hyorhinis 29E; assay: MIC, broth-dilution microtiter test (Table X); assay type: cell-based; details: read-out: MIC
Source text: as §1

[21] = test system: Staphylococcus aureus X400; assay: MIC, standard agar-dilution assay (Table IX); assay type: cell-based; details: Staphylococcus aureus X400, Methicillin-resistant strain, read-out: MIC
[22] = test system: Klebsiella X26; assay: MIC, standard agar-dilution assay (Table IX); assay type: cell-based; details: read-out: MIC
[23] = test system: Staphylococcus aureus S13E; assay: MIC, standard agar-dilution assay (Table IX); assay type: cell-based; details: Staphylococcus aureus, S13E
[24] = test system: Streptococcus Group D X66; assay: MIC, standard agar-dilution assay (Table IX); assay type: cell-based; details: read-out: MIC
[25] = test system: Streptococcus pneumoniae Park I; assay: MIC, standard agar-dilution assay (Table IX); assay type: cell-based
[26] = test system: Pasteurella multocida; assay: Pasteurella infection in one-day-old chicks, medicated drinking water (Table XIII); assay type: in vivo; details: Administered in the available drinking water at 2 g/gal
Experimental: (§2) Many of the C-20 modified derivatives of this invention have also shown in vivo antibacterial activity against infections induced by gram-negative bacteria. Tables XII and XIII summarize the results of tests in which illustrative compounds were evaluated against a Pasteurella infection in one-day-old chicks. The compounds were administered parenterally or orally after challenge of the chicks with Pasteurella multocida (0.1 ml of a 10^-4 dilution of a twenty-hour tryptose broth culture of an avian P. multocida given subcutaneously). In these tests, unless indicated otherwise, all non-medicated infected chicks died within 24 hours of Pasteurella challenge. In the tests summarized in Table XII, the compounds were administered by subcutaneous injection at a dosage of 30 mg/kg, 1 and 4 hours post-challenge of the chicks with P. multocida. In the tests summarized in Table XIII the compounds were administered in medicated drinking water (at a level of 2 g/gal) available from 4 to 20 hours prior to challenge of the chicks with P. multocida and during the 3 -day test period.
^a Administered in the available drinking water at a concentration of […]

[27] = test system: Pasteurella multocida; assay: Pasteurella infection in one-day-old chicks, subcutaneous administration (Table XII); assay type: in vivo; details: Administered subcutaneously, 30 mg/kg × 2, 1 and 4 hours post-challenge
Experimental: as §2
^a Administered subcutaneously; 30 mg/kg × 2

[28] = test system: Haemophilus influenzae C.L.; assay: MIC, standard agar-dilution assay (Table IX); assay type: cell-based; details: Ampicillin-sensitive strain, read-out: MIC
[29] = test system: Streptococcus pyogenes C203; assay: MIC, standard agar-dilution assay (Table IX); assay type: cell-based; details: read-out: MIC
[30] = Titratable groups (first value)

Row | Compound | MIC [1] [µg/mL] | MIC [2] [µg/mL] | MIC [3] [µg/mL] | MIC [4] [µg/mL] | MIC [5] [µg/mL] | MIC [6] [µg/mL] | MIC [7] [µg/mL] | pKa ([8]; Titratable groups) | pKa [8, 30] | MIC [9] [µg/mL] | ED50 ([11]; C203, Oral) [mg/kg] | ED50 ([11]; C203, sc, Subcutaneous) [mg/kg] | MIC [12] [µg/mL] | MIC [13] [µg/mL] | MIC [14] [µg/mL] | MIC [15] [µg/mL] | MIC [16] [µg/mL] | MIC [17] [µg/mL] | MIC [18] [µg/mL] | MIC [19] [µg/mL] | further results
1 | CCC1OC(=O)CC(O)C(C)C(OC2OC(C)C(O)C(N(C)C)C2O)C(CCN2CC3CCC(CC3)C2)CC(C)C(=O)C=CC(C)=CC1COC1OC(C)C(O)C(OC)C1OC (stereo not drawn) [Compound D14, 20-DH-DO-20-[3-azabicyclo[3.2.2]nonan-3-yl]desmycosin] | 32 (≈ 36.3 µM) | 0.25 (≈ 0.284 µM) | 16 (≈ 18.2 µM) | 8 (≈ 9.08 µM) | 0.25 (≈ 0.284 µM) | 0.12 (≈ 0.136 µM) | 32 (≈ 36.3 µM) | 9.2 | 7.9 | 4 (≈ 4.54 µM) | 50 | 1 | 0.78 (≈ 0.885 µM) | 1.56 (≈ 1.77 µM) | 1.56 (≈ 1.77 µM) | 1.56 (≈ 1.77 µM) | 3.12 (≈ 3.54 µM) | 3.12 (≈ 3.54 µM) | 0.78 (≈ 0.885 µM) | 0.39 (≈ 0.443 µM) | MIC ([10]; Staphylococcus epidermidis, EPI1): 0.5 µg/mL (≈ 0.567 µM); MIC [20]: 50 µg/mL (≈ 56.7 µM); MIC [21]: 0.5 µg/mL (≈ 0.567 µM); MIC [22]: 8 µg/mL (≈ 9.08 µM); MIC [23]: 0.25 µg/mL (≈ 0.284 µM); MIC [24]: 4 µg/mL (≈ 4.54 µM); MIC ([25]; Streptococcus pneumoniae): 0.5 µg/mL (≈ 0.567 µM); Number of Deaths/Number Treated [26]: 0/10; Number of Deaths/Number Treated [27]: 2/10; MIC [28]: 4 µg/mL (≈ 4.54 µM)
2 | CCC1OC(=O)CC(O)C(C)C(OC2OC(C)C(O)C(N(C)C)C2O)C(CCN2CCCC3CCCCC32)CC(C)C(=O)C=CC(C)=CC1COC1OC(C)C(O)C(OC)C1OC (stereo not drawn) [Compound D20, 20-DH-DO-20-(decahydroquinolin-1-yl)desmycosin] | 128 (≈ 143 µM) | 0.5 (≈ 0.559 µM) | 32 (≈ 35.7 µM) | 16 (≈ 17.9 µM) | 0.5 (≈ 0.559 µM) | 0.25 (≈ 0.279 µM) | 128 (≈ 143 µM) | 9.4 | 7.9 | 8 (≈ 8.94 µM) | 34 | 1.7 | 0.78 (≈ 0.871 µM) | 3.12 (≈ 3.49 µM) | 3.12 (≈ 3.49 µM) | 0.78 (≈ 0.871 µM) | 3.12 (≈ 3.49 µM) | 3.12 (≈ 3.49 µM) | 0.78 (≈ 0.871 µM) | 0.195 (≈ 0.218 µM) | MIC [29]: 0.25 µg/mL (≈ 0.279 µM); MIC ([10]; Staphylococcus epidermidis EPI1, agar-dilution, read-out: MIC): 0.5 µg/mL (≈ 0.559 µM); MIC [20]: 50 µg/mL (≈ 55.9 µM); MIC [21]: 0.5 µg/mL (≈ 0.559 µM); MIC [22]: 16 µg/mL (≈ 17.9 µM); MIC [23]: 0.5 µg/mL (≈ 0.559 µM); MIC [24]: 8 µg/mL (≈ 8.94 µM); MIC ([25]; Streptococcus pneumoniae Park I, agar-dilution, read-out: MIC): 0.12 µg/mL (≈ 0.134 µM); Number of Deaths/Number Treated [26]: 0/10; MIC [28]: 16 µg/mL (≈ 17.9 µM)
